Test results taken from patent publication US10188634B2, “3-(3H-imidazo[4,5-C]pyridin-2-yl)-1 H-pyrazolo[4,3-B]pyridines and therapeutic uses thereof” (Samumed, LLC, priority 2015, dated 2019).

Assays:
SW480 colon cancer cells = assay: Cell viability assay (CellTiter-Blue) in SW480 colon cancer cells; assay type: cell-based; details: Homo sapiens, 96 h; for inhibition at 10 µM: four days, CellTiter-Blue, read-out: percent inhibition at 10 μM (given for EC50 of >10 μM); for EC50: four days incubation, CellTiter-Blue cell viability
Procedure, shortened: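 About 2×10^3 SW480 colon cancer cells per well were exposed to compound (8-point 1:3 dilutions, 10 μM to 0.004 μM) for four days at 37 °C. Viability was read by CellTiter-Blue resazurin reduction (~3 h, Ex 560/Em 590). EC50 from nonlinear regression; above 10 μM, % inhibition at 10 μM is reported.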

[1] = test system: LL29 cells (primary human fibroblasts derived from IPF patients) treated with TGF-β1, α-smooth muscle actin; assay: Inhibition of the fibrotic process: αSMA staining in TGF-β1 treated primary human fibroblasts from IPF patients (LL29 cells); assay type: cell-based; details: Fibroblast, 96 h; for EC50: LL29 cells treated with TGF-β1 (20 ng/mL), 4 days; for inhibition at 10 µM: LL29 cells treated with TGF-β1, 4 days, read-out: percent inhibition in brackets (given for EC50 >10 μM)

CCCCC(=O)Nc1cncc(-c2ccc3[nH]nc(-c4nc5c(-c6ccccn6)cncc5[nH]4)c3n2)c1 [Compound 159, N-(5-(3-(7-(Pyridin-2-yl)-3H-imidazo[4,5-c]pyridin-2-yl)-1H-pyrazolo[4,3-b]pyridin-5-yl)pyridin-3-yl)pentanamide]
inhibition at 10 µM (SW480 colon cancer cells): 9% | EC50 (SW480 colon cancer cells): > 10 µM | EC50 [1]: > 10 µM | inhibition at 10 µM [1]: 0.4%

CCC(=O)Nc1cncc(-c2ccc3[nH]nc(-c4nc5c(N6CCCCC6)cncc5[nH]4)c3n2)c1 [Compound 169, N-(5-(3-(7-(Piperidin-1-yl)-3H-imidazo[4,5-c]pyridin-2-yl)-1H-pyrazolo[4,3-b]pyridin-5-yl)pyridin-3-yl)propionamide]
inhibition at 10 µM (SW480 colon cancer cells): 2.2% | EC50 (SW480 colon cancer cells): > 10 µM | EC50 [1]: > 10 µM | inhibition at 10 µM [1]: 3%

CN(C)Cc1cncc(-c2ccc3[nH]nc(-c4nc5c(N6CCCCC6)cncc5[nH]4)c3n2)c1 [Compound 181, N,N-Dimethyl-1-(5-(3-(7-(piperidin-1-yl)-3H-imidazo[4,5-c]pyridin-2-yl)-1H-pyrazolo[4,3-b]pyridin-5-yl)pyridin-3-yl)methanamine]
EC50 (SW480 colon cancer cells): 7.75 µM | EC50 [1]: 8.03 µM

Cc1cn(-c2cncc3[nH]c(-c4n[nH]c5ccc(-c6cncc(NC(=O)CC(C)C)c6)nc45)nc23)cn1 [Compound 198, 3-Methyl-N-(5-(3-(7-(4-methyl-1H-imidazol-1-yl)-3H-imidazo[4,5-c]pyridin-2-yl)-1H-pyrazolo[4,3-b]pyridin-5-yl)pyridin-3-yl)butanamide]
inhibition at 10 µM (SW480 colon cancer cells): 4.2% | EC50 (SW480 colon cancer cells): > 10 µM | EC50 [1]: > 10 µM | inhibition at 10 µM [1]: 0%

Cc1cn(-c2cncc3[nH]c(-c4n[nH]c5ccc(-c6cncc(NC(=O)C(C)(C)C)c6)nc45)nc23)cn1 [Compound 204, N-(5-(3-(7-(4-methyl-1H-imidazol-1-yl)-3H-imidazo[4,5-c]pyridin-2-yl)-1H-pyrazolo[4,3-b]pyridin-5-yl)pyridin-3-yl)pivalamide]
inhibition at 10 µM (SW480 colon cancer cells): 4.7% | EC50 (SW480 colon cancer cells): > 10 µM | EC50 [1]: > 10 µM | inhibition at 10 µM [1]: 0%

Cc1cn(-c2cncc3[nH]c(-c4n[nH]c5ccc(-c6cncc(CN7CCCC7)c6)nc45)nc23)cn1 [Compound 210, 3-(7-(4-Methyl-1H-imidazol-1-yl)-3H-imidazo[4,5-c]pyridin-2-yl)-5-(5-(pyrrolidin-1-ylmethyl)pyridin-3-yl)-1H-pyrazolo[4,3-b]pyridine]
inhibition at 10 µM (SW480 colon cancer cells): 4% | EC50 (SW480 colon cancer cells): > 10 µM | EC50 [1]: > 10 µM | inhibition at 10 µM [1]: 0%

Cc1cn(-c2cncc3[nH]c(-c4n[nH]c5ccc(-c6cncc(NC(=O)C7CCC7)c6)nc45)nc23)cn1 [Compound 217, N-(5-(3-(7-(4-Methyl-1H-imidazol-1-yl)-3H-imidazo[4,5-c]pyridin-2-yl)-1H-pyrazolo[4,3-b]pyridin-5-yl)pyridin-3-yl)cyclobutanecarboxamide]
inhibition at 10 µM (SW480 colon cancer cells): 0% | EC50 (SW480 colon cancer cells): > 10 µM | EC50 [1]: > 10 µM | inhibition at 10 µM [1]: 18.8%

CN1CCN(c2cncc3[nH]c(-c4n[nH]c5ccc(-c6cncc(N)c6)nc45)nc23)CC1 [Compound 227, 5-(3-(7-(4-Methylpiperazin-1-yl)-3H-imidazo[4,5-c]pyridin-2-yl)-1H-pyrazolo[4,3-b]pyridin-5-yl)pyridin-3-amine]
inhibition at 10 µM (SW480 colon cancer cells): 0% | EC50 (SW480 colon cancer cells): > 10 µM | EC50 [1]: 4.83 µM

CC(C)C(=O)Nc1cncc(-c2ccc3[nH]nc(-c4nc5c(N6CCN(C)CC6)cncc5[nH]4)c3n2)c1 [Compound 233, N-(5-(3-(7-(4-Methylpiperazin-1-yl)-3H-imidazo[4,5-c]pyridin-2-yl)-1H-pyrazolo[4,3-b]pyridin-5-yl)pyridin-3-yl)isobutyramide]
inhibition at 10 µM (SW480 colon cancer cells): 1% | EC50 (SW480 colon cancer cells): > 10 µM | EC50 [1]: > 10 µM | inhibition at 10 µM [1]: 3.4%
